Results on 24 compounds are retold here after PubChem BioAssay AID256 (DTP/NCI, 2004).

In the assay the test system is CD2F1 mice, L1210 leukemia ip, survival T/C. The assay can be described thus: NCI In Vivo Anticancer Drug Screen. Data for tumor model L1210 Leukemia (intraperitoneal) in CD2F1 (CDF1) mice. The note with it: endpoint: mean survival time, higher = longer survival. A digest of the protocol: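 Mice carrying a transplanted tumor received test compound or vehicle alone. The value is the measurement in the treated group divided by that in the vehicle-treated control group.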

Where [1] appears, read: dose: 100.0 mg/kg/injection, schedule: Q01DX009 (ip), vehicle: saline with Tween-80.
Setting [2] is: dose: 100.0 mg/kg/injection, schedule: Q04DX003 (ip), vehicle: saline with Tween-80.
Where [3] appears, read: dose: 200.0 mg/kg/injection, schedule: Q01DX009 (ip), vehicle: saline with Tween-80.
[4] abbreviates: dose: 200.0 mg/kg/injection, schedule: Q04DX003 (ip), vehicle: saline with Tween-80.
Setting [5] is: dose: 400.0 mg/kg/injection, schedule: Q04DX003 (ip), vehicle: saline with Tween-80.
Setting [6] is: dose: 25.0 mg/kg/injection, schedule: Q01DX009 (ip), vehicle: saline with Tween-80.
[7] abbreviates: dose: 50.0 mg/kg/injection, schedule: Q01DX009 (ip), vehicle: saline with Tween-80.
The mark [8] stands for this setting: dose: 25.0 mg/kg/injection, schedule: Q04DX003 (ip), vehicle: saline with Tween-80.
Where [9] appears, read: dose: 50.0 mg/kg/injection, schedule: Q04DX003 (ip), vehicle: saline with Tween-80.
[10] abbreviates: dose: 75.0 mg/kg/injection, schedule: Q01DX001 (ip), vehicle: saline.
Setting [11] is: dose: 150.0 mg/kg/injection, schedule: Q01DX001 (ip), vehicle: saline.
Where [12] appears, read: dose: 400.0 mg/kg/injection, schedule: Q01DX009 (ip), vehicle: saline with Tween-80.

Values joined by “and” are separate entries in the source; they are usually repeats but may differ in a detail not shown here. Equal values may be shown once. Inconclusive results and toxic doses are left out.

Take `CCOc1ccc(/C=C/[N+](=O)[O-])cc1`: the T/C runs as follows: under setting [1], 114 % of control; under setting [2], 104 % of control; under setting [3], 89 % of control; under setting [4], 98 % of control; under setting [5], 111 % of control.
Consider `O=C(OC/C=C/CCl)c1ccc([N+](=O)[O-])cc1`, for which the T/C is 95 % of control under setting [6]; 94 % of control under setting [7]; 91 % of control and 94 % of control under setting [1].
Regarding `CC1CC(OC(=O)c2ccccc2)CCC1=O` (configuration not stated), the T/C is, setting by setting: (dose: 5.0 mg/kg/injection, schedule: Q01DX001 (ip), vehicle: other) 102 % of control; (dose: 10.0 mg/kg/injection, schedule: Q01DX001 (ip), vehicle: other) 106 % of control; (dose: 20.0 mg/kg/injection, schedule: Q01DX001 (ip), vehicle: other) 103 % of control; (dose: 40.0 mg/kg/injection, schedule: Q01DX001 (ip), vehicle: other) 108 % of control; (dose: 80.0 mg/kg/injection, schedule: Q01DX001 (ip), vehicle: other) 96 % of control.
Turning to `CC(Br)C(=O)NCC(=O)O` (configuration not stated), the T/C runs as follows: under setting [2], 92 % of control; under setting [4], 91 % of control; under setting [5], 95 % of control.
Turning to `CC#CC(=O)SCCNC(=O)CC`, the T/C is 101 % of control (dose: 12.5 mg/kg/injection, schedule: Q01DX009 (ip), vehicle: saline with Tween-80); 101 % of control under setting [6]; 112 % of control under setting [8]; 101 % of control under setting [7]; 106 % of control under setting [9]; 86 % of control under setting [2].
Turning to `Cc1ccccc1NC(=O)C1CCC(C)(C(=O)O)C1(C)C` (configuration not stated), the T/C under setting [2] is 98 % of control, the T/C under setting [4] is 93 % of control and the T/C under setting [5] is 96 % of control.
As for `CCOC(=O)C(C#N)C(C(C)=O)C(=O)OCC` (configuration not stated), the T/C by setting is: under setting [8], 103 % of control; under setting [9], 98 % of control; under setting [2], 97 % of control.
On to `O=C1CC2OCCC3CN4CCC56c7ccccc7N1C5C2C3CC46` (configuration not stated), for which the T/C under setting [10] was 106 % of control and the T/C under setting [11] is 101 % of control.
As to `O=C(NO)c1cccnc1`, the T/C is, setting by setting: (dose: 270.0 mg/kg/injection, schedule: Q01DX009 (ip), vehicle: other) 121 % of control; (dose: 400.0 mg/kg/injection, schedule: Q01DX001 (ip), vehicle: other) 98 % of control; (dose: 600.0 mg/kg/injection, schedule: Q01DX001 (ip), vehicle: other) 101 % of control; (dose: 800.0 mg/kg/injection, schedule: Q01DX001 (ip), vehicle: other) 101 % of control; (dose: 800.0 mg/kg/injection, schedule: Q01DX009 (ip), vehicle: other) 164 % of control.
On to `CCOC(=O)C1OC12c1cccc3cccc(c13)C21OC1C(=O)OCC` (configuration not stated), for which the T/C is 97 % of control under setting [2], 95 % of control under setting [4] and 91 % of control under setting [5].
Consider `C(=Nc1ccccc1)c1ccccc1C=Nc1ccccc1`, for which the T/C is, setting by setting: under setting [1], 94 % of control; (dose: 100.0 mg/kg/injection, schedule: Q04DX003 (ip), vehicle: saline sonified) 100 % of control; under setting [3], 92 % of control; (dose: 200.0 mg/kg/injection, schedule: Q04DX003 (ip), vehicle: saline sonified) 100 % of control; under setting [12], 94 % of control; (dose: 400.0 mg/kg/injection, schedule: Q04DX003 (ip), vehicle: saline sonified) 102 % of control.
With `C=C[Si]1(C)O[Si](C)(C=C)O[Si](C)(C=C)O1` (configuration not stated), the T/C was 93 % of control under setting [7], 104 % of control under setting [1] and 93 % of control under setting [3].
For the compound `CCOC(=O)c1ccccc1C(C)CC` (configuration not stated), the T/C was 98 % of control (dose: 75.0 mg/kg/injection, schedule: Q01DX001 (ip), vehicle: other); 97 % of control (dose: 150.0 mg/kg/injection, schedule: Q01DX001 (ip), vehicle: other); 95 % of control (dose: 300.0 mg/kg/injection, schedule: Q01DX001 (ip), vehicle: other).
With `O=C(NNC(=O)c1c(F)c(F)c(F)c(F)c1F)c1c(F)c(F)c(F)c(F)c1F`, the T/C is 97 % of control under setting [1] and 97 % of control under setting [3].
Consider `CN(C)N=Nc1ccccc1C(N)=O`, for which the T/C by setting is: (dose: 18.8 mg/kg/injection, schedule: Q01DX009 (ip), vehicle: Klucel (hydroxypropylcellulose) (HPC)) 106 % of control; (dose: 37.5 mg/kg/injection, schedule: Q01DX009 (ip), vehicle: Klucel (hydroxypropylcellulose) (HPC)) 117 % of control and 106 % of control; (dose: 75.0 mg/kg/injection, schedule: Q01DX009 (ip), vehicle: Klucel (hydroxypropylcellulose) (HPC)) 116 % of control and 123 % of control; (dose: 100.0 mg/kg/injection, schedule: Q01DX009 (ip), vehicle: Klucel (hydroxypropylcellulose) (HPC)) 151 % of control; (dose: 150.0 mg/kg/injection, schedule: Q01DX009 (ip), vehicle: Klucel (hydroxypropylcellulose) (HPC)) 123 % of control and 86 % of control and 101 % of control.
On to `COC(Cc1ccccc1)(c1ccccc1)c1ccccc1`, for which the T/C (dose: 100.0 mg/kg/injection, schedule: Q04DX002 (ip), vehicle: saline with Tween-80) is 95 % of control; the T/C (dose: 200.0 mg/kg/injection, schedule: Q04DX002 (ip), vehicle: saline with Tween-80) is 102 % of control; the T/C (dose: 400.0 mg/kg/injection, schedule: Q04DX002 (ip), vehicle: saline with Tween-80) was 91 % of control.
As to `O=C1CCCC2C(=O)CCCC12` (configuration not stated), the T/C is, setting by setting: under setting [1], 97 % of control; under setting [3], 103 % of control; under setting [12], 103 % of control.
For the compound `C=CCOC(=O)CCN1CC1`, the T/C is 106 % of control (dose: 0.5 mg/kg/injection, schedule: Q01DX009 (ip), vehicle: saline with Tween-80); 103 % of control (dose: 1.0 mg/kg/injection, schedule: Q01DX009 (ip), vehicle: saline with Tween-80); 103 % of control (dose: 2.0 mg/kg/injection, schedule: Q01DX009 (ip), vehicle: saline with Tween-80).
For the compound `Nc1cccc(/C=C/c2nc(N)nc(N)c2-c2ccc(Cl)c(Cl)c2)c1`, the T/C reads like this: under setting [10], 91 % of control; under setting [11], 92 % of control; (dose: 300.0 mg/kg/injection, schedule: Q01DX001 (ip), vehicle: saline) 91 % of control.
Turning to `Cn1c(=O)c2c(nc(-[n+]3ccccc3)n2C)n(C)c1=O`, the T/C was 94 % of control (dose: 12.5 mg/kg/injection, schedule: Q01DX005 (ip), vehicle: water); 100 % of control (dose: 25.0 mg/kg/injection, schedule: Q01DX005 (ip), vehicle: water); 103 % of control (dose: 50.0 mg/kg/injection, schedule: Q01DX005 (ip), vehicle: water); 103 % of control (dose: 100.0 mg/kg/injection, schedule: Q01DX005 (ip), vehicle: water); 120 % of control (dose: 200.0 mg/kg/injection, schedule: Q01DX005 (ip), vehicle: water).
Regarding `CN(CCC#N)CCC#N`, the T/C reads like this: (dose: 100.0 mg/kg/injection, schedule: Q04DX003 (ip), vehicle: saline) 101 % of control; (dose: 200.0 mg/kg/injection, schedule: Q04DX003 (ip), vehicle: saline) 96 % of control; (dose: 400.0 mg/kg/injection, schedule: Q04DX003 (ip), vehicle: saline) 101 % of control.
As for `CCCCN=C(Cl)C(Cl)(c1ccccc1)c1ccccc1`, the T/C was 98 % of control (dose: 100.0 mg/kg/injection, schedule: Q04DX002 (ip), vehicle: saline); 103 % of control (dose: 200.0 mg/kg/injection, schedule: Q04DX002 (ip), vehicle: saline); 95 % of control (dose: 400.0 mg/kg/injection, schedule: Q04DX002 (ip), vehicle: saline).
As for `CCN1CCC2OCOC2C1` (configuration not stated), the T/C was 102 % of control under setting [10] and 102 % of control under setting [11].
As for `O=c1cc(O)cnn1C1OC(CO)C(O)C1O` (configuration not stated), the T/C is 118 % of control and 110 % of control (dose: 25.0 mg/kg/injection, schedule: Q01DX009 (ip), vehicle: water); 114 % of control and 117 % of control and 112 % of control (dose: 50.0 mg/kg/injection, schedule: Q01DX009 (ip), vehicle: water); 118 % of control (2×) and 108 % of control (dose: 100.0 mg/kg/injection, schedule: Q01DX009 (ip), vehicle: water); 117 % of control and 108 % of control (dose: 200.0 mg/kg/injection, schedule: Q01DX009 (ip), vehicle: water); 119 % of control (dose: 400.0 mg/kg/injection, schedule: Q01DX009 (ip), vehicle: water).
